Test results published in paper PMC10313368 (The Journal of Clinical Investigation, 2023).
Where “and” joins values, the source holds several entries; their conditions need not be identical. Equal values may be shown once.

What was measured:
MIO-M1 cells = assay: qPCR of VEGF and ANGPTL4 mRNA in hypoxic MIO-M1 cells; format: cell-based, human; conditions: for Angptl4 mRNA / Vegfa mRNA: MIO-M1, 1%O2+32-134D 10μM, 20%O2 about 1, replicates, Figure 7H
Procedure: MIO-M1, HUVECs, and ARPE19 cells were cultured in DMEM with 10% (vol/vol) FBS (Quality Biological) and 1% penicillin/streptomycin (Cellgro). A hypoxic chamber (Coy Laboratory Product Inc.; Two Glove Model) with 5% CO2, 94% N2, and 1% O2 gas concentration at 37°C was used to culture hypoxic cells. The control cells were cultured in an incubator maintained at 37°C, with 21% O2 and 5% CO2. […] Aflibercept was obtained from the Johns Hopkins University Pharmacy. […]
Reverse transcription and quantitative real-time PCR. Total RNA was isolated from cultured cells or retinas with PureLinkTM RNA Mini Kit (Invitrogen #12183025), and cDNA was prepared with MuLV Reverse Transcriptase (Applied Biosystems). Quantitative real-time PCR was performed with Power SYBR Green PCR Master Mix (Applied Biosystems) and MyiQ Real-Time PCR Detection System (Bio-Rad). Normalization was done using cyclophilin A for mouse tissue and human cell lines. Primers are listed in Supplemental Table 2. […]

HIF-1α = target: T1, HIF-1α (Mus musculus, UniProt Q61221); assay: Western blot of HIF-1α protein accumulation in retina of OIR mice (P13); format: in vivo
T1 construct: from tissue; host or cells: retina of C57BL/6 OIR pups
T1 sequence (Q61221 whole entry): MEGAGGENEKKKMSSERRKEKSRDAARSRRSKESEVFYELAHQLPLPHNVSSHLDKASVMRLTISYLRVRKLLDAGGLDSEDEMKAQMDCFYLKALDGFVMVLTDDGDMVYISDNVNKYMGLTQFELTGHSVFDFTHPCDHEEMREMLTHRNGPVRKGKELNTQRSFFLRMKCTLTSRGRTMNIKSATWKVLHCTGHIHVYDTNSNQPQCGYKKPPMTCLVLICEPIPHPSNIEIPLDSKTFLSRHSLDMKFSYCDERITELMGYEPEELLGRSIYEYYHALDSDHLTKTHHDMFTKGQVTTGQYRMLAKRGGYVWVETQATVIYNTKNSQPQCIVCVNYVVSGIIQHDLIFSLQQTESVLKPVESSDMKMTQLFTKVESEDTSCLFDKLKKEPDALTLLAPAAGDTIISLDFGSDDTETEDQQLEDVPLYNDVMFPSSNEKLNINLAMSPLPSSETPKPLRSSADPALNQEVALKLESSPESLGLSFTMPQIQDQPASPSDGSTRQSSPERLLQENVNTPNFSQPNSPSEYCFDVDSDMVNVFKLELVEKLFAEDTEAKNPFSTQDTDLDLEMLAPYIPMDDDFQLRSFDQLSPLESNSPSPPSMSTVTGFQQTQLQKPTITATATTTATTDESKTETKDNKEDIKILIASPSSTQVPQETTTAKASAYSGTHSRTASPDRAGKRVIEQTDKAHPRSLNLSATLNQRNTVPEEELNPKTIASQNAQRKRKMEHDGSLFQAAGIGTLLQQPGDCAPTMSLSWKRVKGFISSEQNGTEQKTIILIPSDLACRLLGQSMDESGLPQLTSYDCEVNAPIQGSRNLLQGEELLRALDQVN
Procedure: (§1) Immunoblot assays. Cells, neurosensory retina, and D120 retinal organoid lysates were subjected to 4–15% gradient SDS/PAGE (Invitrogen). Immunoblot (Western blot or WB) assays were performed as previously described (1).
(§2) Reverse transcription and quantitative real-time PCR. Total RNA was isolated from cultured cells or retinas with PureLinkTM RNA Mini Kit (Invitrogen #12183025), and cDNA was prepared with MuLV Reverse Transcriptase (Applied Biosystems). Quantitative real-time PCR was performed with Power SYBR Green PCR Master Mix (Applied Biosystems) and MyiQ Real-Time PCR Detection System (Bio-Rad). Normalization was done using cyclophilin A for mouse tissue and human cell lines. Primers are listed in Supplemental Table 2.
(§3) Angiogenesis array. […]
(§4) cDNA was prepared with QuantiTect® Reverse Transcription Kit (Qiagen, Cat# 205311). […]
(§5) 4444554). […] The data were analyzed by using HPRT1 as endogenous […]
(§6) HUVEC cells, Euclidean distance was used to quantify the difference in qPCR screening. The Euclidean distance was calculated using “dist” function from R’s default stat library that measures the distance between 2 vectors (i.e., total qPCR expression values in control and treatment). […]
(§7) STZ-induced diabetes mouse model. […] Blood glucose was measured on experimental day 28 after 16 hours fasting and mice with blood glucose level > 250 mg/dL were considered […]

HIF-2α [1] = target: T2, HIF-2α (Mus musculus, UniProt P97481); assay: Western blot of HIF-2α protein accumulation in retina of OIR mice (P14); format: in vivo
T2 construct: from tissue; host or cells: retina of C57BL/6 OIR pups
T2 sequence (P97481 whole entry): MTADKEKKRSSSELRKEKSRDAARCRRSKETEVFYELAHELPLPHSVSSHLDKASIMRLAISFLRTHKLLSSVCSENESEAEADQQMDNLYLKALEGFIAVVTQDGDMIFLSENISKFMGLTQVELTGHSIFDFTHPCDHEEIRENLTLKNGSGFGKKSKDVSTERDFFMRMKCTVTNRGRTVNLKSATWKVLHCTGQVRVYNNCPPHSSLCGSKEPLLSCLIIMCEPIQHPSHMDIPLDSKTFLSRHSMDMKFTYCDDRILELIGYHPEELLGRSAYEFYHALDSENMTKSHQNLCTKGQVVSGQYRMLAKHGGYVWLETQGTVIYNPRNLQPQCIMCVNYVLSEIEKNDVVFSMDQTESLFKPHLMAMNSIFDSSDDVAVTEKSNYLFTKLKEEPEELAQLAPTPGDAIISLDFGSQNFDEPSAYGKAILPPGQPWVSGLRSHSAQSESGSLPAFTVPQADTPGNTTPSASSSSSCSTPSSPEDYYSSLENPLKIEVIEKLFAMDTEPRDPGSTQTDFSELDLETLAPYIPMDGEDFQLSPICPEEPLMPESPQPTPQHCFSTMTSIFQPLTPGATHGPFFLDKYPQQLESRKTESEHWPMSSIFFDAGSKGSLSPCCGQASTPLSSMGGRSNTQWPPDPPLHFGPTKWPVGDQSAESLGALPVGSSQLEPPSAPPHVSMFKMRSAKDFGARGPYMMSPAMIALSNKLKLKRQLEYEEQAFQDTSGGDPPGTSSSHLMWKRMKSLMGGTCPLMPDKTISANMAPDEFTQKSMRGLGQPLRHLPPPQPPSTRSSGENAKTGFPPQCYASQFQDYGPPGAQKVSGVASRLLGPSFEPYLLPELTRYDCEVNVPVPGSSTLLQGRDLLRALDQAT
Procedure: as §1, §2, §3, §4, §5, §6, §7

HIF-2α [2] = target: HIF-2α (Homo sapiens, UniProt Q99814); assay: Immunoblot of HIF-2α accumulation in MIO-M1 cells cultured in hypoxia; format: cell-based; parameters: endogenous in cells; host or cells: MIO-M1; conditions: MIO-M1, 1 μM 32-134D, 1% O2 4 hours
Sequence of HIF-2α (Homo sapiens, UniProt Q99814) (Q99814 whole entry): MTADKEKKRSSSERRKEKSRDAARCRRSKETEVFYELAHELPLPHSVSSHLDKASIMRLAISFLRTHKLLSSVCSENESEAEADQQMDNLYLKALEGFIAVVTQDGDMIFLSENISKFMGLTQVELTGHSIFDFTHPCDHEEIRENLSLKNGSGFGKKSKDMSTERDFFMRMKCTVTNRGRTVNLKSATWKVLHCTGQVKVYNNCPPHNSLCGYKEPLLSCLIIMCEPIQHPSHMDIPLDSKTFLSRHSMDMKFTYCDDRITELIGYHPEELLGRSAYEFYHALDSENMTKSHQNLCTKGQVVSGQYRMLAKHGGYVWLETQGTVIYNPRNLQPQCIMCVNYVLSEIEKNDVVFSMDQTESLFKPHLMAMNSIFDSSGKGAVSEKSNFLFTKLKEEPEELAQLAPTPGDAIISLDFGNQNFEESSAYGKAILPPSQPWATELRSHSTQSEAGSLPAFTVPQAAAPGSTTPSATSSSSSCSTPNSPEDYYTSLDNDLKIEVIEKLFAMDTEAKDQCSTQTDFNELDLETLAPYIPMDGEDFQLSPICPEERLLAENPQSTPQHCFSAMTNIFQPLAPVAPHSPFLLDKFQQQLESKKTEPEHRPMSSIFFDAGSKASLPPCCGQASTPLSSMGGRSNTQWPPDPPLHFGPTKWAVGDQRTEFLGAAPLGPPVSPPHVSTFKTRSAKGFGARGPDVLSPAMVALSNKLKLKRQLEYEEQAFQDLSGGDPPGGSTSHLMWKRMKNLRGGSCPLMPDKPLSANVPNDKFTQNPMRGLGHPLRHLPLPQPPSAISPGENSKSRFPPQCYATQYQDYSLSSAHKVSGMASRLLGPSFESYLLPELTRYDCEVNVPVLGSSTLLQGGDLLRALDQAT
Procedure: MIO-M1, HUVECs, and ARPE19 cells were cultured in DMEM with 10% (vol/vol) FBS (Quality Biological) and 1% penicillin/streptomycin (Cellgro). A hypoxic chamber (Coy Laboratory Product Inc.; Two Glove Model) with 5% CO2, 94% N2, and 1% O2 gas concentration at 37°C was used to culture hypoxic cells. The control cells were cultured in an incubator maintained at 37°C, with 21% O2 and 5% CO2. […] Aflibercept was obtained from the Johns Hopkins University Pharmacy.
Immunoblot assays. Cells, neurosensory retina, and D120 retinal organoid lysates were subjected
to 4–15% gradient SDS/PAGE (Invitrogen). Immunoblot (Western blot or WB) assays were
performed as previously described (1). […]

SMILES: Brc1ccc2c(-c3csc(-c4c[nH]c5c(Br)cccc45)n3)c[nH]c2c1 [32-134D, 4-(6-bromo-1H-indol-3-yl)-2-(7-bromo-1H-indol-3-yl)thiazole]
- logIC50 (MIO-M1 cells; Figure 12B, [Inhibitor] vs. response (three parameters), best-fit value): 0.5455
- Angptl4 mRNA (MIO-M1 cells; 2hrs): 0.3563 and 0.4262 and 0.3782
- Vegfa mRNA (MIO-M1 cells; 2hrs): 1.026 and 1.073 and 1.079
- Angptl4 mRNA (MIO-M1 cells; 4hrs): 1.791 and 1.687 and 2.018
- Vegfa mRNA (MIO-M1 cells; 4hrs): 1.517 and 1.493 and 1.343
- Angptl4 mRNA (MIO-M1 cells; 8hrs): 1.385 and 1.132 and 0.993
- Vegfa mRNA (MIO-M1 cells; 8hrs): 2.421 and 2.295 and 2.311
- HIF-1α protein accumulation in OIR mice (HIF-1α; single i.p. injection 20 mg/kg, P13): reduction
- accumulation of HIF-1α in OIR mice (HIF-1α; single intraocular injection 14 ng at P12, P13): effectively reduced
- HIF-2α protein accumulation in OIR mice (HIF-2α [1]; single i.p. injection 20 mg/kg, P14): reduction
- accumulation of HIF-2α in OIR mice (HIF-2α [1]; single intraocular injection 14 ng at P12, P14): effectively reduced
- HIF-2α protein accumulation in response to hypoxia (HIF-2α [2]): decreased
